Experimental data: EP0850950A1, “PEPTIDE DERIVATIVES” (DAIICHI PHARMACEUTICAL CO., LTD., priority 1995, dated 1998)

Tested on: Mice
Test: analgesic activity by pressure stimulation method (tail base)
Assay type: in vivo
Conditions: percent of maximum possible effect, maximum stimulating pressure 100 mmHg; for MPE(%) 1 mg/kg s.c. (%): 1 mg/kg subcutaneous administration (skin in the backs); for MPE(%) 10 mg/kg p.o.(%): 10 mg/kg oral administration
Method: The analgesic activities of the peptide derivatives of the present invention were evaluated by pressure stimulation method. Mice were subjected to pressure stimulation at the bases of their tails at a rate of 10 mmHg/second. […] For the experiments, mice that were preliminarily determined to respond to a pressure of 40-50 mmHg were used. The maximum stimulating pressure was 100 mmHg. Analgesic activity was calculated as percent of maximum possible effect (% of MPE) according to the following equation: % of MPE =(Pt - Po)/(Pc - Po)× 100 [formula] wherein Po is the pain reaction threshold before the administration of a drug; Pt is the pain reaction threshold "t" minutes after the administration of the drug; and Pc is the maximum stimulating pressure. The results of analgesic activity obtained from subcutaneous administration (skin in the backs) and oral administration are shown in Table 1.

SMILES | MPE(%) 1 mg/kg s.c. (%) | MPE(%) 10 mg/kg p.o.(%)
CN(CCC(=O)O)C(=O)[C@H](Cc1ccccc1)NC(=O)[C@@H](CCCNC(=N)N)NC(=O)[C@H](Cc1ccc(O)c(O)c1)NC(=N)N [Example 4, H2NC(NH)-DOPA-D-Arg-Phe-MeβAla-OH·diacetate] | 70.85 | 18.11
CC(=N)NC[C@@H](NC(=O)[C@H](Cc1ccc(O)cc1)NC(=N)N)C(=O)N[C@@H](Cc1ccccc1)C(=O)N(C)CCC(=O)O [Example 32, H2NC(NH)-Tyr-D-IEPR-Phe-MeβAla-OH·diacetate] | 66.61 | 52.72
CC(=N)NCCC[C@@H](NC(=O)[C@H](Cc1ccc(O)cc1)NC(=N)N)C(=O)N[C@@H](Cc1ccccc1)C(=O)N(C)CCC(=O)O [Example 17, H2NC(NH)-Tyr-(R)-IEPE-Phe-MeβAla-OH·diacetate] | 100 | 88.34
CN(CCC(=O)O)C(=O)[C@H](Cc1ccc(O)cc1)NC(=O)[C@@H](CCCNC(=N)N)NC(=O)[C@H](Cc1ccc(O)cc1)NC(=N)N [Example 25, H2NC(NH)-Tyr-D-Arg-Tyr-MeβAla-OH·diacetate] | 22.55 | 10.96
CN(CCC(=O)O)C(=O)[C@H](Cc1ccccc1)NC(=O)[C@@H](CCNC(=N)N)NC(=O)[C@H](Cc1ccc(O)cc1)NC(=N)N [Example 10, H2NC(NH)-Tyr-(R)-AGBA-Phe-MeβAla-OH·diacetate] | 42.78 | 10.62
CC(=N)N[C@@H](Cc1ccc(O)cc1)C(=O)N[C@H](CCCCN)C(=O)N[C@@H](Cc1ccccc1)C(=O)N(C)CCC(=O)O [Example 19, H3C-C(NH)-Tyr-D-Lys-Phe-MeβAla-OH·diacetate] | 87.11 | 82.29
CC(=N)N[C@@H](Cc1ccc(O)cc1)C(=O)N[C@H](CC[S+](C)[O-])C(=O)N[C@@H](Cc1ccccc1)C(=O)N(C)CCC(=O)O (stereo partly drawn) [Example 31, H3C-C(NH)-Tyr-D-AMSB-Phe-MeβAla-OH·acetate] | 100 | 96.18
CN(CCC(=O)O)C(=O)[C@H](CCc1ccccc1)NC(=O)[C@@H](CCCNC(=N)N)NC(=O)[C@H](Cc1ccc(O)cc1)NC(=N)N [Example 26, N-H2NC(NH)-Tyr-D-Arg-APBA-MeβAla-OH·diacetate] | 32.83 | 14.44
CN(CCC(=O)O)C(=O)[C@H](CC1CCCCC1)NC(=O)[C@@H](CCCNC(=N)N)NC(=O)[C@H](Cc1ccc(O)cc1)NC(=N)N [Example 27, H2NC(NH)-Tyr-D-Arg-Cha-MeβAla-OH·diacetate] | 52.14 | 33.15
Cc1cc(O)cc(C)c1C[C@H](NC(=N)N)C(=O)N[C@H](CCCNC(=N)N)C(=O)N[C@@H](Cc1ccccc1)C(=O)N(C)CCC(=O)O [Example 2, H2NC(NH)-DMT-D-Arg-Phe-MeβAla-OH·diacetate] | 93.47 | 22.78
